This note sets out measurements from patent US20070037752A1, “Novel alanyl-amino peptidase inhibitors for functionally influencing different cells and treating immunological, inflammatory, neuronal, and other diseases” (priority 2003, published 2007).

Each structure is given as a SMILES string. Where two headings read alike, the source gives them in different places.

In this test the target is alanyl aminopeptidases (APN) (Homo sapiens, UniProt P15144). The experiment in a line: Inhibition of alanyl aminopeptidase enzymatic activity, fluorogenic substrate (Ala)2-rhodamine 110. In kind it is biochemical. The procedure:
The inhibition characteristics measured are referred to as IC-50 values or ID50 values (the latter marked with “*”) for said enzyme. The enzymatic activity was determined by means of the fluorogenic substrate/product (Ala)2-rhodamine 110.

Setting [1] is: Table 1, unstarred values, read-out: IC50APN.
Where [2] appears, read: Table 3, starred values = ID50, read-out: ID50 APN (values marked with *).
The mark [3] stands for this setting: Table 3, unstarred values, read-out: IC50APN.

Sequence of alanyl aminopeptidases (APN) (P15144 whole entry, species assumed): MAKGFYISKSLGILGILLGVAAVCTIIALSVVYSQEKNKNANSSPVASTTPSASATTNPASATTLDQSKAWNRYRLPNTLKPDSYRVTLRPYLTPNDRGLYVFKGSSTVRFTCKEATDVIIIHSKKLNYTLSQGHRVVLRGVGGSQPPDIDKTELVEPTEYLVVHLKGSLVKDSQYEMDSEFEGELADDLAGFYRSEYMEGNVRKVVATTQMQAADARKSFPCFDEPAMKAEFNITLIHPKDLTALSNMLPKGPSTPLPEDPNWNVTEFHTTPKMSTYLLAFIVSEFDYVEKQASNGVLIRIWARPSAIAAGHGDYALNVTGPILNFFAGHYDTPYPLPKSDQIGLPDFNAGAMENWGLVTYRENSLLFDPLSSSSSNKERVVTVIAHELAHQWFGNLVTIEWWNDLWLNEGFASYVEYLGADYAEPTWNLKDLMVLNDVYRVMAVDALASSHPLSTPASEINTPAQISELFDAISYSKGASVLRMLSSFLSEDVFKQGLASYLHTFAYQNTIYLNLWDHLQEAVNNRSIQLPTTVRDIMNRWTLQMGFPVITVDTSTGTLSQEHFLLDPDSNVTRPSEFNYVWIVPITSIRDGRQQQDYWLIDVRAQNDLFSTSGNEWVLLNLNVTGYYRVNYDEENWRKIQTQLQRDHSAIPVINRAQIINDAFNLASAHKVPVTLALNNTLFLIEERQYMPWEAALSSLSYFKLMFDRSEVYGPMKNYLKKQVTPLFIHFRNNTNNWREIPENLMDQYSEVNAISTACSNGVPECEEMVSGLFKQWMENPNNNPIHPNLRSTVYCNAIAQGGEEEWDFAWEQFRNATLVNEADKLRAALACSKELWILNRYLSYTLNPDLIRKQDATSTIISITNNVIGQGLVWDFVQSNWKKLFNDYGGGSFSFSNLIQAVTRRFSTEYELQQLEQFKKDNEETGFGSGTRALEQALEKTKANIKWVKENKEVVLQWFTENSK

With `Cc1cc(Cl)ccc1OCCC(=O)NO` [A1.002], the IC50 under setting [1] came out at 5.6 µM. On the same count and under the same terms, the value for `O=C(CCOC(c1ccccc1)c1ccc(Br)cc1)NO` (stereo not drawn) [A1.003] was 6.3 µM; that for `O=C(COc1ccc(Br)cc1)NO` [A1.004] was 6.4 µM; that for `O=C(CCOC(c1ccccc1)c1ccc(Cl)cc1)NO` (stereo not drawn) [A1.005] was 7.3 µM. Still for that read-out and setting: the value for `CCOc1ccc(CC(=O)NO)cc1` [A1.006] was 7.5 µM. Still for that read-out and setting: the value for `O=C(ON1C(=O)CCC1=O)C1CCC(=O)N1C(=O)OCc1ccccc1` (stereo not drawn) [A1.007] was 8.4 µM; that for `O=C(CS(=O)(=O)c1ccc(Cl)cc1)NO` [A1.008] was 11.5 µM. For `O=C(CCCCCN1C(=O)c2cccc3cccc(c23)C1=O)NO` [A1.009], the IC50 under setting [1] was 14.1 µM. `Cc1ccc(C(OCCC(=O)NO)c2ccccc2)cc1` (stereo not drawn) [A1.010]: under setting [1], the IC50 worked out at 14.2 µM. On the same count and under the same terms, to `O=C(O)C1N=NC(c2ccc(F)cc2)=CN1O` (stereo not drawn) [A1.011] belongs 17.1 µM. Same read-out and setting: the value for `O=C(CCOC(c1ccc(F)cc1)c1ccc(F)cc1)NO` [A1.012] was 21.8 µM. Same read-out and setting: the value for `CC(CCc1ccccc1)C(=O)NO` (stereo not drawn) [A1.013] was 25.2 µM; that for `COc1ccc(C(OCCC(=O)NO)c2ccccc2)cc1` (stereo not drawn) [A1.014] was 33 µM; that for `N#CCCCCCCCCC(=O)NO` [A1.015] was 80.6 µM.

On to `CCCCc1noc2c1/C(=N/O)CC(c1ccccc1)C2` (stereo not drawn) [A2.001], for which the IC50 (Table 2, read-out: IC50APN) was determined as 2.2 µM. On the same count and under the same terms, to `C/C(=N/O)c1ccc2c(c1)OCCOCCOc1cc(/C(C)=N\O)ccc1OCCOCCO2` [A2.002] belongs 8.6 µM; to `Cc1ccc(/C=N/NC(=O)c2nnn(-c3nonc3N)c2C)o1` [A2.003], 10.9 µM; to `COCc1nnn(-c2nonc2N)c1C(=O)N/N=C/c1ccco1` [A2.004], 12.5 µM. Same read-out and setting: to `N/C(=N/OS(=O)(=O)c1ccc(C(F)(F)F)cc1)C1CSCCS1` (stereo not drawn) [A2.006] belongs 13.4 µM; to `N/C(=N\N=C\c1ccco1)c1nonc1N` [A2.007], 14.6 µM.

With `Nc1nonc1-n1nnc(C(=O)N/N=C/c2ccco2)c1-c1ccccc1` [A2.008], the IC50 (Table 2, read-out: IC50APN) came to 46.6 µM. As for `COC(=O)CCC/C=C1/SC[C@@H](NC(=O)c2ccccc2)/C1=N/O` [A2.010], the IC50 (Table 2, read-out: IC50APN) was found to be 93.6 µM.

For the compound `COC(=O)C1=C(N)N2C(=O)CSC2=C(C(=O)OC)C1` [A3.001], the IC50APN entry (Table 3, unstarred values) is recorded as ““very high”. As for `CCOC(=O)c1ncn(C(=O)OC)c1N` [A3.002], the IC50 under setting [2] was 0.9 µM. Same read-out and setting: to `CC1=C(C#N)C(=O)N(CCO)C(=O)/C1=C\c1ccc(-c2cc(Cl)ccc2Cl)o1` [A3.003] belongs 1.2 µM.

`CCCCc1noc2c1/C(=N/O)CC(c1ccccc1)C2` (stereo not drawn) [A3.006]: under setting [2], the IC50 stood at 2.2 µM. On the same count and under the same terms, the value for `CCOC(=O)c1nc[nH]c1N` [A3.007] was 2.6 µM; that for `Nc1ccc2c(c1)C/C(=C\c1ccco1)C2=O` [A3.008] was 2.6 µM.

Consider `O=C(Nc1cccc(/N=C/c2cc(I)cc(I)c2O)c1)c1ccco1` [A3.009], for which the IC50 under setting [3] worked out at 3 µM. On the same count and under the same terms, the value for `C/C(Cn1nnc([N+](=O)[O-])n1)=N/NC(=O)COc1ccccc1[N+](=O)[O-]` [A3.010] was 3.4 µM; that for `O=C(Nc1cccc(/N=C/c2cc(/N=N\c3ccccc3Cl)ccc2O)c1)c1ccco1` [A3.011] was 3.6 µM; that for `CCOC(=O)c1nc(C)[nH]c1N` [A3.012] was 4.3 µM.

Take `Cc1cc(C)c(C)c(C(=O)COC(=O)c2ccc(-n3c(C)ccc3C)cc2)c1C` [A3.014]: the IC50 under setting [3] is 4.5 µM. Same read-out and setting: the value for `COC(=O)C1=C(C(=O)OC)C(c2cc(Br)ccc2O)c2sc(O)nc2S1` (stereo not drawn) [A3.015] was 4.7 µM; that for `COc1ccc(/C=N/NC(=O)C2=C(C)Nc3ccccc3S2)cc1Cn1nc(C)c(Br)c1C` [A3.016] was 4.8 µM. Still for that read-out and setting: to `O=C(Nc1ccc(NCc2cc(Cc3ccccc3Cl)cc(Br)c2O)cc1)c1ccco1` [A3.017] belongs 4.9 µM. As for `COC(=O)c1ccc(-c2ccc(/C=C3\C(=O)N(CCCO)C(=O)C(C#N)=C3C)o2)cc1` [A3.018], the IC50 under setting [3] worked out at 5 µM.

Consider `O=C(CCC(=O)Nc1ccc(Br)cc1)N/N=C/c1ccco1` [A3.019], for which, under setting [3], the IC50 came out at 5.2 µM.

As for `CCOC(=O)c1c(N)ncn1-c1ccccc1` [A3.020], the IC50 under setting [3] was 5.4 µM. The same measure, in the same setting: the value for `CC1CCN(C(=O)/C(=C\c2ccco2)NC(=O)c2ccc(Cl)cc2)CC1` [A3.022] was 6.2 µM; that for `COC(=O)c1cccc(-c2ccc(/C=C3\C(=O)N(CCO)C(=O)C(C#N)=C3C)o2)c1` [A3.023] was 6.3 µM.

`CCc1cccc(CC)c1NC(=S)N/N=C1\C(=O)N(CN2CC(C)CC(C)C2)c2ccccc21` (stereo not drawn) [A3.024]: the IC50 under setting [3] amounted to 6.6 µM. For `Cc1ccc(/C=N/NC(=O)c2nnn(-c3nonc3N)c2-c2ccccc2)o1` [A3.025], the IC50 under setting [3] was 6.9 µM. Still for that read-out and setting: the value for `CCOC(=O)N1CCc2c(sc(NC(=O)c3ccc(F)cc3)c2C(=O)Nc2ccc(Br)cc2)C1` [A3.026] was 7.3 µM; that for `CCOC(=O)C1C(C)C2C3C(=O)N(c4cccc5ccccc45)C(=O)C3C1(C)C1C(=O)N(c3cccc4ccccc34)C(=O)C21` (stereo not drawn) [A3.027] was 7.4 µM. Consider `O=C(N/N=C\c1ccco1)c1ccc(S(=O)(=O)N2CCCCCC2)cc1` [A3.029], for which, under setting [3], the IC50 was found to be 8 µM. Same read-out and setting: the value for `COc1ccc(Cl)cc1C(=O)N/C(=C/c1ccco1)C(=O)N1CC2CC(C1)c1cccc(=O)n1C2` (stereo not drawn) [A3.030] was 8.1 µM; that for `O=C(Nc1cccc(/N=C/c2cc(Br)cc(Br)c2O)c1)c1ccco1` [A3.031] was 8.2 µM.

As for `CCCCOC(=O)c1ccc(NC(=O)/C=C\c2ccco2)cc1` [A3.032], under setting [3], the IC50 is 8.3 µM. The same measure, in the same setting: the value for `O=C(/C=C/c1ccco1)Nc1ccc(C(=O)O)cc1` [A3.033] was 8.4 µM; that for `COc1ccc(C2NCCS2)cc1` (stereo not drawn) [A3.035] was 9.5 µM.

Turning to `CC1=C(C#N)C(=O)N(CCCO)C(=O)/C1=C\c1ccc(-c2cc(C)c(C)cc2[N+](=O)[O-])o1` [A3.037], the IC50 under setting [3] came to 9.7 µM. Still for that read-out and setting: to `Cc1ccc(/C=N/NC(=O)c2cccc(NC(=O)c3ccc(F)cc3)c2)o1` [A3.038] belongs 9.8 µM. Same read-out and setting: the value for `Cc1ccc(/C=N/NC(=O)c2cccc(Cl)c2)o1` [A3.039] was 10.5 µM; that for `O=C(N/C(=C\c1ccco1)C(=O)N1CCCCC1)c1ccco1` [A3.040] was 10.6 µM. On the same count and under the same terms, the value for `Cc1ccc(/C=N/NC(=O)c2nnn(-c3nonc3N)c2C)o1` [A3.041] was 10.9 µM; that for `Cc1ccc(C(=O)N/C(=C\c2ccco2)C(=O)N2CC3CC(C2)c2cccc(=O)n2C3)cc1` (stereo not drawn) [A3.042] was 11 µM. Consider `COc1cc(Br)ccc1OCC(=O)N/N=C/C=C/c1ccco1` [A3.043], for which the IC50 under setting [3] worked out at 11 µM. Still for that read-out and setting: to `C=CC[N+]1=C(/C=C2\SC(c3ccccc3)=C(c3ccccc3)N2CC)S/C(=C/C=C2\SC(c3ccccc3)=C(c3ccccc3)N2CC)C1=O` [A3.045] belongs 11.1 µM; to `Cc1[nH]c2ccccc2c1C(c1cc(Cl)ccc1O)N1CCOCC1` (stereo not drawn) [A3.046], 11.7 µM; to `NNC(=O)c1ccc(NS(=O)(=O)c2cccs2)cc1` [A3.047], 11.8 µM. The same measure, in the same setting: the value for `Cc1ccc(C(=O)N/C(=C\c2ccco2)C(=O)N2CC3CC(C2)c2cccc(=O)n2C3)cc1C` (stereo not drawn) [A3.048] was 11.8 µM; that for `C/C(=N\NC(=O)CNC(=O)/C=C/c1ccco1)c1ccc2ccccc2c1` [A3.050] was 12 µM. Turning to `CCOc1cc(/C=N/NC(=O)CNC(=O)c2cccc(Cl)c2)ccc1OC(=O)c1cccs1` [A3.051], under setting [3], the IC50 was determined as 12.2 µM. The same measure, in the same setting: to `Cc1nc(N)sc1C(=O)N/N=C/c1ccco1` [A3.052] belongs 12.3 µM; to `COCc1c(C(=O)N/N=C/c2ccc(C)o2)nnn1-c1nonc1N` [A3.053], 12.5 µM; to `CCN(CC)C(=O)/C(=C/c1ccco1)NC(=O)c1ccccc1` [A3.054], 12.8 µM. Same read-out and setting: the value for `Cc1cccc(C)c1NC(=S)NC(=O)c1cccs1` [A3.055] was 12.9 µM; that for `O=C(COc1cccc2ccccc12)N/N=C/c1ccco1` [A3.056] was 12.9 µM. On to `CC(C)COc1ccc(C(=O)N/C(=C\c2ccco2)C(=O)N2CCOCC2)cc1` [A3.057], for which the IC50 under setting [3] came out at 13.1 µM. On the same count and under the same terms, the value for `O=C(N/C(=C\c1ccco1)C(=O)N1CCOCC1)c1ccco1` [A3.058] was 13.5 µM; that for `COC(=O)N/N=C(C)\C=C\c1ccco1` [A3.059] was 13.5 µM. With `O=C(COc1ccc(F)cc1)N/N=C/c1ccco1` [A3.060], under setting [3], the IC50 turned out to be 13.6 µM.

On to `CCc1ccc(-c2cc(C(=O)N/N=C/c3c(C)nn(-c4ccccc4)c3C)[nH]n2)cc1` [A3.061], for which the IC50 under setting [3] worked out at 13.6 µM. The same measure, in the same setting: to `O=C(COc1ccc2ccccc2c1)N/N=C/c1ccco1` [A3.062] belongs 13.9 µM; to `CCOC(=O)c1ncn(Cc2ccccc2)c1N` [A3.063], 14 µM; to `O=C(N/N=C/c1ccco1)c1cc(C2CC2)n[nH]1` [A3.064], 14.3 µM.

`Clc1ccc(-n2cc3c(-c4ccco4)nnc(-c4nc5ccccc5s4)c3n2)cc1` [A3.065]: the IC50 under setting [3] is 14.3 µM. As for `O=C(N/N=C/c1ccco1)c1cc(-c2ccc(F)cc2)n[nH]1` [A3.066], under setting [3], the IC50 is 14.4 µM. With `O=c1[nH]c(/C=C/c2ccco2)cc2ccccc12` [A3.067], the IC50 under setting [3] amounted to 14.6 µM. The same measure, in the same setting: the value for `N/C(=N\N=C\c1ccco1)c1nonc1N` [A3.068] was 14.6 µM; that for `COC(=O)c1cc(-c2ccc(/C=C3\C(=O)N(CCCO)C(=O)C(C#N)=C3C)o2)ccc1Cl` [A3.069] was 15.2 µM; that for `O=C(NNC1=C(Cl)C(=O)C(Cl)(Cl)C1=O)c1ccccc1` [A3.070] was 15.2 µM. Still for that read-out and setting: to `O=C(CNC(=O)C(c1ccccc1)c1ccccc1)N/N=C/c1ccco1` [A3.071] belongs 15.6 µM. Still for that read-out and setting: the value for `CCOC(=O)CCCCC(=O)c1c(C)n(C(=O)c2ccc(N3C(=O)CCC3=O)cc2)c(=O)n1C(=O)c1ccc(N2C(=O)CCC2=O)cc1` [A3.072] was 15.6 µM. As to `Cc1ccc(/C=C(\NC(=O)c2ccccc2)C(=O)NC2CC2)o1` [A3.073], under setting [3], the IC50 was 15.6 µM.

`O=C(N/N=C/C=C\c1ccco1)c1ccco1` [A3.074]: the IC50 under setting [3] turned out to be 16 µM.
